According to publication PMC5515969, “Effects of 31 FDA approved small-molecule kinase inhibitors on isolated rat liver mitochondria” (Archives of Toxicology, 2016):
Like-named read-outs stand apart in the source and are kept apart here.

Experiments:
[1] = system: isolated rat liver mitochondria; assay: Mitochondrial oxygen consumption (glutamate/malate or succinate driven, state 4 and state 3); type: biochemical; conditions: for Glutamate/malate driven respiration State 3 / Glutamate/malate driven respiration State 4 / Succinate-driven respiration State 3 / Succinate-driven respiration State 4: oxygen consumption, DMSO-treated = 1; on State 3 respiration driven by succinate at 10XCmax: key: 0 indicates that the drug had no effects (negative); on State 3 respiration driven by succinate at 1XCmax: key: 0 indicates that the drug had no effects (negative)
Outline: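 Rat liver mitochondria (1 mg/ml protein) exposed 5 min to kinase inhibitors in 0.1% DMSO, then O2 consumption measured by Clark-type electrode with glutamate/malate or succinate (state 4), ADP added after 3 min (state 3). Rates normalized to 0.1% DMSO controls set to 1.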

[2] = system: RCC V; assay: RCC V activity in submitochondrial particles; type: biochemical, rat; conditions: DMSO treated samples set as 1; on RCC V at 5XCmax: key: 0 indicates that the drug had no effects (negative)
Outline: (§1)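 Inhibitors preincubated 15 min with submitochondrial particles (1 mg/ml) before activity readout. RCC I (rotenone-sensitive fraction) and I/V: A340, and RCC II: A600, each every 1 min for 6 min; RCC III/IV: A550 every 10 s for 2 min. Activities relative to DMSO control set as 1.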

[3] = system: isolated rat liver mitochondria; assay: Mitochondrial ROS production (CM-H2DCFDA); conditions: DMSO treated samples set as 1
[4] = cited from earlier work
[5] = system: isolated rat liver mitochondria; conditions: positive control alamethicin treated samples
[6] = target: T1, RCC II (Rattus norvegicus, UniProt P21913+Q641Z9+Q6PCT8+Q920L2); assay: RCC II activity in submitochondrial particles; type: biochemical; set-up: key: activity relative to DMSO-treated controls (control set as 1 = 100%); conditions: DMSO treated samples set as 1
T1 construct: Submitochondrial particles were prepared by subjecting the intact mitochondria to three successive freeze–thaw cycles; from tissue; host or cells: rat liver mitochondria, used as submitochondrial particles
T1 sequence (Q920L2 35-656): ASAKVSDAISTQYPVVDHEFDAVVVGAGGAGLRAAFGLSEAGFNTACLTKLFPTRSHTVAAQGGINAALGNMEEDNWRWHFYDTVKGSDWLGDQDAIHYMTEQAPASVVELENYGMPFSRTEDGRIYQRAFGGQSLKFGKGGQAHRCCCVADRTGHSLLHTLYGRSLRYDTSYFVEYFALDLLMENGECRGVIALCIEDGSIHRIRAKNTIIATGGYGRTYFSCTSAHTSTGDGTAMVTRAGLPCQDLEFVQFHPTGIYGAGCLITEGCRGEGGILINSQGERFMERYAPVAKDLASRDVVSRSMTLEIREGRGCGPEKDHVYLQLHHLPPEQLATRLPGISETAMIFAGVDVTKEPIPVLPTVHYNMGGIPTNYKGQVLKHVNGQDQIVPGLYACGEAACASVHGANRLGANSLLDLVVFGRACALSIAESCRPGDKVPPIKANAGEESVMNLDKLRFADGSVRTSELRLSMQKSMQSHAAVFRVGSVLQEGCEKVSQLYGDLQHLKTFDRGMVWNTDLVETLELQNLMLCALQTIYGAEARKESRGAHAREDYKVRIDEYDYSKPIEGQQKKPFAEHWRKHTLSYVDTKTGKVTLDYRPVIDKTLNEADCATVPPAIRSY
T1 sequence (P21913 31-282): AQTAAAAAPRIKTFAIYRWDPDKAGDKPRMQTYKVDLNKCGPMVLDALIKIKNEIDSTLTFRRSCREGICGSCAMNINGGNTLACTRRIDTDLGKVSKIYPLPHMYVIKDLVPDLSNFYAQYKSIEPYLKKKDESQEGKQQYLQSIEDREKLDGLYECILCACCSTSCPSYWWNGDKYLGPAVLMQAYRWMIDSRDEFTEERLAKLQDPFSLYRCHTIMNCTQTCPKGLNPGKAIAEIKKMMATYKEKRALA
T1 sequence (Q641Z9 1-169): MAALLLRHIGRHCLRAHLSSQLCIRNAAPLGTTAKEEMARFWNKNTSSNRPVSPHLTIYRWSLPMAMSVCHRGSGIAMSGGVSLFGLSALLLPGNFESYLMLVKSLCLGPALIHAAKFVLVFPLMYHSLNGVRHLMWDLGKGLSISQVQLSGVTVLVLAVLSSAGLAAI
T1 sequence (Q6PCT8 57-159): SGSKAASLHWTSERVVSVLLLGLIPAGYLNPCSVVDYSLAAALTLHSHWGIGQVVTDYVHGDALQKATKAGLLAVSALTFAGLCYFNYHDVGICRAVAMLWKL
Outline: as §1

[7] = system: RCC III; assay: RCC III activity in submitochondrial particles; type: biochemical, rat; set-up: key to RCC III at 100XCmax: activity relative to DMSO-treated controls (control set as 1 = 100%); conditions: 100XCmax
Outline: as §1

[8] = system: isolated rat liver mitochondria; assay: Mitochondrial swelling (absorbance at 535 nm); type: biochemical; conditions: difference in signal between KI and DMSO treated samples at the end of experiments; on Swelling 5XCmax: key: 0 indicates that the drug had no effects (negative)
[9] = system: RCC I; assay: RCC I activity in submitochondrial particles; type: biochemical, rat; set-up: key to RCC I at 10XCmax / RCC I at 100XCmax / RCC I at 50XCmax / RCC I at 30XCmax / RCC I at 20XCmax: activity relative to DMSO-treated controls (control set as 1 = 100%); conditions: 10XCmax; DMSO treated samples set as 1
Outline: as §1

[10] = 1XCmax, DMSO treated samples set as 1
[11] = 2.5XCmax, DMSO treated samples set as 1
[12] = 5XCmax, DMSO treated samples set as 1
[13] = 10XCmax, DMSO treated samples set as 1
[14] = 20XCmax, DMSO treated samples set as 1
[15] = 30XCmax, DMSO treated samples set as 1
[16] = 50XCmax, DMSO treated samples set as 1
[17] = 100XCmax, DMSO treated samples set as 1

## COc1cc2nccc(Oc3ccc(NC(=O)NC4CC4)c(Cl)c3)c2cc1C(N)=O [Lenvatinib]
[1]; [10]
  State 3 respiration driven by succinate at 1XCmax: 0
  State 4 respiration driven by succinate at 1XCmax: 0
[1]; [11]
  State 3 respiration driven by succinate at 2.5XCmax: 0
  State 4 respiration driven by succinate at 2.5XCmax: 0
[1]; [12]
  State 3 respiration driven by succinate at 5XCmax: 0
  State 4 respiration driven by succinate at 5XCmax: 0
[1]; [13]
  State 3 respiration driven by succinate at 10XCmax: 0
  State 4 respiration driven by succinate at 10XCmax: 0
[1]; [14]
  State 3 respiration driven by succinate at 20XCmax: 0
  State 4 respiration driven by succinate at 20XCmax: 0
[1]; 30-fold Cmax
  Glutamate/malate driven respiration State 3: 0.76 ± 0.05
  Glutamate/malate driven respiration State 4: 0.95 ± 0.06
  Succinate-driven respiration State 3: 0.86 ± 0.04
  Succinate-driven respiration State 4: 0.94 ± 0.01
[1]; [15]
  State 3 respiration driven by glutamate/malate at 30XCmax: 0.76±0.05
  State 3 respiration driven by succinate at 30XCmax: 0
  State 4 respiration driven by succinate at 30XCmax: 0
[1]; 50-fold Cmax
  Glutamate/malate driven respiration State 3: 0.70 ± 0.02
  Glutamate/malate driven respiration State 4: 0.93 ± 0.01
  Succinate-driven respiration State 3: 0.90 ± 0.01
  Succinate-driven respiration State 4: 0.96 ± 0.03
[1]; [16]
  State 3 respiration driven by glutamate/malate at 50XCmax: 0.70±0.02
  State 3 respiration driven by succinate at 50XCmax: 0
  State 4 respiration driven by succinate at 50XCmax: 0
[1]; 100-fold Cmax
  Glutamate/malate driven respiration State 3: 0.74 ± 0.04
  Glutamate/malate driven respiration State 4: 1.06 ± 0.06
  Succinate-driven respiration State 3: 0.99 ± 0.03
  Succinate-driven respiration State 4: 1.07 ± 0.03
[1]; [17]
  State 3 respiration driven by glutamate/malate at 100XCmax: 0.74±0.04
  State 3 respiration driven by succinate at 100XCmax: 0
  State 4 respiration driven by succinate at 100XCmax: 0
[1]; tested at 1 to 100-fold Cmax
  lowest concentration significantly affecting mitochondrial oxygen consumption: 30 fold Cmax
[2]; 5XCmax
  RCC V at 5XCmax: 0
[2]; 50XCmax
  RCC V at 50XCmax: 0
[3]; 1XCmax
  ROS measured by CM-H2DCFDA at 1XCmax: 0
[3]; 2.5XCmax
  ROS measured by CM-H2DCFDA at 2.5XCmax: 0
[3]; 5XCmax
  ROS measured by CM-H2DCFDA at 5XCmax: 0
[3]; 10XCmax
  ROS measured by CM-H2DCFDA at 10XCmax: 0
[3]; 20XCmax
  ROS measured by CM-H2DCFDA at 20XCmax: 0
[3]; 30XCmax
  ROS measured by CM-H2DCFDA at 30XCmax: 0
[3]; 50XCmax
  ROS measured by CM-H2DCFDA at 50XCmax: 0
[3]; 100XCmax
  ROS measured by CM-H2DCFDA at 100XCmax: 0
[4]; human therapeutic Cmax at FDA recommended dosages, ref product labeling and drug approval packages at the official FDA website
  Cmax: 0.68 µM
[4]; human therapeutic maximal blood concentration, ref product labeling
  Cmax (ng or µg/ml): 0.291 µg/mL
[4]; read-out: Cmax at µM, human therapeutic maximal blood concentration, ref product labeling
  Cmax: 0.68 µM
[5]; 1XCmax
  Cytochrome c release 1XCmax: 0
[5]; 2.5XCmax
  Cytochrome c release 2.5XCmax: 0
[5]; 5XCmax
  Cytochrome c release 5XCmax: 0
[5]; 10XCmax
  Cytochrome c release 10XCmax: 0
[5]; 20XCmax
  Cytochrome c release 20XCmax: 0
[5]; 30XCmax
  Cytochrome c release 30XCmax: 0
[5]; 50XCmax
  Cytochrome c release 50XCmax: 0
[5]; 100XCmax
  Cytochrome c release 100XCmax: 0
[6]; 1.0XCmax
  RCC II at 1.0XCmax: 0
[6]; 2.5XCmax
  RCC II at 2.5XCmax: 0
[6]; 5XCmax
  RCC II at 5XCmax: 0
[6]; 10XCmax
  RCC II at 10XCmax: 0
[6]; 20XCmax
  RCC II at 20XCmax: 0
[6]; 30XCmax
  RCC II at 30XCmax: 0
[6]; 50XCmax
  RCC II at 50XCmax: 0
[6]; 100XCmax
  RCC II at 100XCmax: 0
[7]
  RCC III at 100XCmax: 0
[8]; 1XCmax
  Swelling 1XCmax: 0
[8]; 2.5XCmax
  Swelling 2.5XCmax: 0
[8]; 5XCmax
  Swelling 5XCmax: 0
[8]; 10XCmax
  Swelling 10XCmax: 0
[8]; 20XCmax
  Swelling 20XCmax: 0
[8]; 30XCmax
  Swelling 30XCmax: 0
[8]; 50XCmax
  Swelling 50XCmax: 0
[8]; 100XCmax
  Swelling 100XCmax: 0
[9]
  RCC I at 10XCmax: 0
